Measured values: ChEMBL document CHEMBL1201862, “PubChem BioAssay data set” (2004)
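Grown in 96-well plates, cells were treated for 48 hours with each compound at five concentrations. Insufficient inhibition: endpoint recorded as highest concentration tested. GI50 marks 50% less growth.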 Calls of active or inactive are those of the source. No stated cut-off is given here; in the data, active = GI50 up to about 1.1 µM and inactive = higher.

Key:
Experiment in all cases: NCI anticancer screen, dose series, 48 h
[1] = test system: A498
[2] = test system: A549
[3] = test system: CAKI-1
[4] = test system: CCRF-CEM
[5] = test system: COLO 205
[6] = test system: DLD-1
[7] = test system: DMS-114
[8] = test system: DMS-273
[9] = test system: EKVX
[10] = test system: HCC 2998
[11] = test system: HCT-116
[12] = test system: HCT-15
[13] = test system: HL-60
[14] = test system: HOP-18
[15] = test system: HOP-62
[16] = test system: HOP-92
[17] = test system: HT-29
[18] = test system: IGROV-1
[19] = test system: K562
[20] = test system: KM-20L2
[21] = test system: KM12
[22] = test system: LOX IMVI
[23] = test system: M19-MEL
[24] = test system: MCF7
[25] = test system: MOLT-4
[26] = test system: Malme-3M
[27] = test system: NCI-H226
[28] = test system: NCI-H23
[29] = test system: NCI-H460
[30] = test system: NCI-H522
[31] = test system: NCI/ADR-RES
[32] = test system: OVCAR-3
[33] = test system: OVCAR-4
[34] = test system: OVCAR-5
[35] = test system: OVCAR-8
[36] = test system: RPMI-8226
[37] = test system: RXF 393
[38] = test system: SF-268
[39] = test system: SF-295
[40] = test system: SF-539
[41] = test system: SK-MEL-28
[42] = test system: SK-MEL-2
[43] = test system: SK-MEL-5
[44] = test system: SK-OV-3
[45] = test system: SN12C
[46] = test system: SNB-19
[47] = test system: SNB-75
[48] = test system: SNB-78
[49] = test system: SW-620
[50] = test system: U-251
[51] = test system: UACC-257
[52] = test system: UACC-62
[53] = test system: UO-31
[54] = test system: XF498
[55] = test system: 786-0
[56] = test system: ACHN
[57] = test system: M14
[58] = test system: SR
[59] = test system: TK-10

## COc1cc(O)c(Cc2ccccc2O)c(O)c1C(=O)CCc1ccccc1 [UVARETIN]
[1]
  GI50: 1.48 µM (inactive)
[2]
  GI50: 5.92 µM (inactive)
[3]
  GI50: 5.24 µM (inactive)
[4]
  GI50: 6.21 µM (inactive)
[5]
  GI50: 5.92 µM (inactive)
[6]
  GI50: 7.33 µM (inactive)
[7]
  GI50: 4.09 µM (inactive)
[8]
  GI50: 4.39 µM (inactive)
[9]
  GI50: 6.19 µM (inactive)
[10]
  GI50: 6.1 µM (inactive)
[11]
  GI50: 4.31 µM (inactive)
[12]
  GI50: 5.71 µM
[13]
  GI50: 4.43 µM (inactive)
[14]
  GI50: 0.713 µM (active)
[15]
  GI50: 2.47 µM (inactive)
[16]
  GI50: 3.99 µM (inactive)
[17]
  GI50: 11.9 µM (inactive)
[18]
  GI50: 6.97 µM (inactive)
[19]
  GI50: 5.26 µM (inactive)
[20]
  GI50: 7.35 µM (inactive)
[21]
  GI50: 6.81 µM (inactive)
[22]
  GI50: 6.05 µM (inactive)
[23]
  GI50: 6.07 µM (inactive)
[24]
  GI50: 5.81 µM (inactive)
[25]
  GI50: 3.85 µM (inactive)
[26]
  GI50: 4.89 µM (inactive)
[27]
  GI50: 6.62 µM (inactive)
[28]
  GI50: 4.17 µM (inactive)
[29]
  GI50: 4.49 µM (inactive)
[30]
  GI50: 2.3 µM (inactive)
[31]
  GI50: 5.66 µM (inactive)
[32]
  GI50: 4.58 µM (inactive)
[33]
  GI50: 6.55 µM (inactive)
[34]
  GI50: 4.6 µM (inactive)
[35]
  GI50: 6.41 µM (inactive)
[36]
  GI50: 2.44 µM (inactive)
[37]
  GI50: 6.07 µM (inactive)
[38]
  GI50: 7.01 µM (inactive)
[39]
  GI50: 5.9 µM (inactive)
[40]
  GI50: 5.41 µM (inactive)
[41]
  GI50: 7 µM (inactive)
[42]
  GI50: 4.71 µM (inactive)
[43]
  GI50: 3.69 µM (inactive)
[44]
  GI50: 6.15 µM (inactive)
[45]
  GI50: 4.82 µM (inactive)
[46]
  GI50: 6.55 µM (inactive)
[47]
  GI50: 6.92 µM (inactive)
[48]
  GI50: 7.64 µM (inactive)
[49]
  GI50: 7.23 µM (inactive)
[50]
  GI50: 5.12 µM (inactive)
[51]
  GI50: 5.36 µM (inactive)
[52]
  GI50: 4.4 µM (inactive)
[53]
  GI50: 6.21 µM (inactive)
[54]
  GI50: 3.21 µM (inactive)

## C=CC[C@H](C[C@H](C[C@H](C[C@H](C[C@H](C[C@H](C[C@H](C[C@H](C[C@H](C[C@H](CCCCC)OC)OC)OC)OC)OC)OC)OC)OC)OC)OC
[55]
  GI50: > 100 µM (inactive)
[1]
  GI50: 85.7 µM (inactive)
[2]
  GI50: > 100 µM (inactive)
[56]
  GI50: > 100 µM (inactive)
[3]
  GI50: > 100 µM (inactive)
[4]
  GI50: > 100 µM (inactive)
[5]
  GI50: > 100 µM (inactive)
[6]
  GI50: > 100 µM (inactive)
[7]
  GI50: 52.6 µM (inactive)
[8]
  GI50: > 100 µM (inactive)
[9]
  GI50: > 100 µM (inactive)
[10]
  GI50: > 100 µM (inactive)
[11]
  GI50: 82.6 µM (inactive)
[13]
  GI50: 52.5 µM (inactive)
[14]
  GI50: > 100 µM (inactive)
[15]
  GI50: > 100 µM (inactive)
[16]
  GI50: > 100 µM (inactive)
[17]
  GI50: > 100 µM (inactive)
[18]
  GI50: > 100 µM (inactive)
[19]
  GI50: 70.3 µM (inactive)
[20]
  GI50: > 100 µM (inactive)
[21]
  GI50: > 100 µM (inactive)
[22]
  GI50: > 100 µM (inactive)
[57]
  GI50: > 100 µM (inactive)
[23]
  GI50: > 100 µM (inactive)
[25]
  GI50: 41.8 µM (inactive)
[26]
  GI50: > 100 µM (inactive)
[27]
  GI50: 62.2 µM (inactive)
[28]
  GI50: 98.6 µM (inactive)
[29]
  GI50: > 100 µM (inactive)
[30]
  GI50: 66.2 µM (inactive)
[32]
  GI50: > 100 µM (inactive)
[33]
  GI50: > 100 µM (inactive)
[34]
  GI50: > 100 µM (inactive)
[35]
  GI50: > 100 µM (inactive)
[36]
  GI50: 52.4 µM (inactive)
[37]
  GI50: 66.4 µM (inactive)
[38]
  GI50: > 100 µM (inactive)
[39]
  GI50: > 100 µM (inactive)
[40]
  GI50: > 100 µM (inactive)
[41]
  GI50: > 100 µM (inactive)
[42]
  GI50: > 100 µM (inactive)
[43]
  GI50: 52.7 µM (inactive)
[44]
  GI50: > 100 µM (inactive)
[45]
  GI50: > 100 µM (inactive)
[46]
  GI50: 83.2 µM (inactive)
[47]
  GI50: 58.1 µM (inactive)
[48]
  GI50: > 100 µM (inactive)
[58]
  GI50: 36.6 µM (inactive)
[49]
  GI50: > 100 µM (inactive)
[59]
  GI50: > 100 µM (inactive)
[50]
  GI50: > 100 µM (inactive)
[51]
  GI50: 70.8 µM (inactive)
[52]
  GI50: > 100 µM (inactive)
[53]
  GI50: 50.7 µM (inactive)
[54]
  GI50: 41.6 µM (inactive)
